Assay results taken from patent US20200261391A1, “METHODS OF REDUCING THE RISK OF A CARDIOVASCULAR EVENT IN A STATIN-TREATED SUBJECT BY INCREASING SERUM AND PLASMA EPA AND DPA LEVELS” (Amarin Pharmaceuticals Ireland Limited, priority 2019, published 2020).

Assays:
Format in all cases: in vivo, human
[1] = tested on: patients with elevated triglyceride levels on statin therapy; assay: REDUCE-IT endpoints by pooled (icosapent ethyl and placebo) EPA blood level tertile
Description: (§1) The objective of this study is to assess the effects of administering icosapent ethyl at 4 g per day to patients from the REDUCE-IT trial of Example 1. More specifically, patients from the REDUCE-IT trial of Example 1 were stratified by their EPA levels into one of three tertiles. Following stratification, the objective was to determine if the RRR differs between patients having EPA levels in the three different tertiles. For the data collected as shown in Tables 38-43 and FIGS. 52, 53, and 56-59, the tertiles were established based on data collected from subjects at 1 year, 2 years, and last visit following icosapent ethyl administration compared to placebo. Data are presented as an average of 1 year, 2 year, […], and end of study values. The data was further analyzed use both pooled and unpooled statistically methods.
(0.84 for lowest vs. placebo, 0.72 for middle vs. placebo, and 0.65 for highest vs. placebo).

[2] = tested on: patients with elevated triglyceride levels on statin therapy; assay: as above; conditions: FIG. 54; ITT pooled; tertiles ≤31.733, >31.733 to ≤120.175, >120.175 μg/mL
[3] = tested on: patients with elevated triglyceride levels on statin therapy; assay: REDUCE-IT endpoints by EPA blood level tertile in the icosapent ethyl group compared to placebo; conditions: averaged upper EPA tertile vs below the upper tertile
Method: To assess the relationship between on-treatment hsCRP and the primary and key secondary endpoints, subgroup analyses were carried out as done for the ITT population for patients grouped according to values greater or equal to or less than […] at baseline and at 2 years. To assess the relationship between on-treatment serum EPA and the primary and key secondary endpoints, Kaplan-Meier (KM) curves were produced for AMR101 treated patients grouped into tertiles based on their values at year 1 and were compared with the placebo-treated patients.
This is a study aimed towards determining a relative risk reduction (RRR) between subjects stratified by EPA tertiles in the REDUCE-IT clinical trial described above in Example 1. Samples were obtained from those subjects and total EPA and AA levels in human serum and plasma samples were determined according at least to the methods described in Example 7.
as §1

[4] = tested on: patients with elevated triglyceride levels on statin therapy; assay: REDUCE-IT endpoints by pooled (icosapent ethyl and placebo) EPA/AA ratio tertile
Description: as §1
Placebo and icosapent ethyl treated subjects were pooled and stratified based on EPA/AA tertiles with […], […], and the highest […]

[5] = pooled, tertiles ≤31.305, >31.305 to ≤118.1, >118.1 μg/mL
[6] = FIG. 56, ITT pooled, tertiles ≤0.0857, >0.0857 to ≤0.4053, >0.4053
[7] = pooled, tertiles ≤0.084337, >0.084337 to ≤0.395187, >0.395187

CC/C=C\C/C=C\C/C=C\C/C=C\C/C=C\CCCC(=O)O [EPA, eicosapentaenoic acid]
primary composite endpoint RRR, highest vs lowest EPA tertile ([1]; FIG. 52, pooled): 43%
primary composite endpoint RRR, highest vs middle EPA tertile ([1]; FIG. 52, pooled): 30%
primary composite endpoint RRR, middle vs lowest EPA tertile ([1]; FIG. 52, pooled): 29%
primary composite endpoint HR, middle vs lowest EPA tertile ([1]; FIG. 54, ITT pooled, tertiles ≤31.733, >31.733 to ≤120.175, >120.175 μg/mL): 0.79
primary endpoint HR, highest vs. lowest tertile ([1]; pooled placebo and icosapent ethyl, tertiles ≤31.305, >31.305 to ≤118.1, >118.1 μg/mL): 0.65
key secondary endpoint HR, highest vs. lowest tertile [1, 5]: 0.61
key secondary endpoint HR, highest vs. middle tertile [1, 5]: 0.78
key secondary endpoint HR, middle vs. lowest tertile [1, 5]: 0.78
primary endpoint HR, highest vs. middle tertile [1, 5]: 0.80
primary endpoint HR, middle vs. lowest tertile [1, 5]: 0.81
primary composite endpoint HR, high vs lowest EPA tertile [2]: 0.64
primary endpoint HR, average achieved EPA >181 mg/L vs ≤181 mg/L [3]: 0.842
primary endpoint HR, highest vs. lowest EPA/AA tertile [4, 6]: 0.63
primary endpoint HR, middle vs. lowest EPA/AA tertile [4, 6]: 0.79
key secondary endpoint HR, highest vs. lowest EPA/AA tertile [4, 7]: 0.57
key secondary endpoint HR, highest vs. middle EPA/AA tertile [4, 7]: 0.75
key secondary endpoint HR, middle vs. lowest EPA/AA tertile [4, 7]: 0.76
primary endpoint HR, highest vs. lowest EPA/AA tertile [4, 7]: 0.64
primary endpoint HR, highest vs. middle EPA/AA tertile [4, 7]: 0.84
primary endpoint HR, middle vs. lowest EPA/AA tertile [4, 7]: 0.77
